Columns and labels:
[1] = system: Glomerella lacenarium (Colletotrichum lacenarium); assay: Fungicidal activity, liquid culture, cucumber preventative (anthracnose); format: cell-based; settings: 20 ppm in the applied formulation, liquid culture in PDB, inhibition of growth measured photometrically 3 to 4 days after application, compared to untreated control, read-out: disease control
In short: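 Conidia from cryogenic storage were mixed into potato dextrose broth and added to DMSO solutions of test compound in microtiter plates. Plates were incubated at 24° C. and growth inhibition read photometrically 3 to 4 days after application, as percent antifungal activity versus untreated check.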

[2] = system: Puccinia recondita f. Sp. Tritici; assay: Fungicidal activity, wheat leaf disc curative (brown rust); format: in vivo; settings: foliar, 200 ppm in the applied formulation, wheat leaf segments cv. Kanzler, curative (applied 1 day after inoculation), compared to untreated control, 6 to 8 days after application, read-out: disease control
In short: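 Wheat cv. Kanzler leaf segments on agar were inoculated with fungal spore suspension, held dark at 19° C and 75% RH, then sprayed 1 day later with formulated compound diluted in water. Incubation continued at 19° C, 75% RH, 12 h light/12 h dark; percent disease control versus untreated was scored 6 to 8 days after application.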

[3] = system: Puccinia recondita f. Sp. Tritici; assay: Fungicidal activity, wheat leaf disc preventative (brown rust); format: in vivo; settings: foliar, 200 ppm in the applied formulation, wheat leaf segments cv. Kanzler, compared to untreated control, 7 to 9 days after application, read-out: disease control
In short: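 Wheat cv. Kanzler leaf segments on agar were sprayed with formulated compound in water, then inoculated with spores 1 day later. Incubated at 19° C, 75% rh, 12 h light/12 h dark; percent disease control versus untreated scored 7 to 9 days after application.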

Phakopsora pachyrhizi = assay: Fungicidal activity, soybean leaf disc preventative (Asian soybean rust); format: in vivo; settings: foliar, 200 ppm in the applied formulation, soybean leaf disks, compared to untreated control, 12 to 14 days after application, read-out: disease control
In short: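 Read-out is percent disease control relative to untreated check discs, assessed once untreated discs show adequate disease, 12 to 14 days after application. Compounds, tested at 200 ppm in the applied formulation, are sprayed onto soybean leaf discs one day before inoculation with a spore suspension.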

CON(Cc1ccc(-c2noc(C(F)(F)F)n2)s1)C(=O)CNC(C)=O [Compound 1.7, 2-acetamido-N-methoxy-N-[[5-[5-(trifluoromethyl)-1,2,4-oxadiazol-3-yl]-2-thienyl]methyl]acetamide]
≥ 80%: inhibition of growth at 20 ppm [1] | pest or weed control at 200 ppm [2] | pest or weed control at 200 ppm [3] | pest or weed control at 200 ppm (Phakopsora pachyrhizi)

CN(Cc1ccc(-c2noc(C(F)(F)F)n2)s1)C(=O)C(N)=O [Compound 6.7, N′-methyl-N′-[[5-[5-(trifluoromethyl)-1,2,4-oxadiazol-3-yl]-2-thienyl]methyl]oxamide]
≥ 80%: inhibition of growth at 20 ppm [1] | pest or weed control at 200 ppm [2] | pest or weed control at 200 ppm [3] | pest or weed control at 200 ppm (Phakopsora pachyrhizi)

CCC(C)C(=O)N(C)Cc1ccc(-c2noc(C(F)(F)F)n2)s1 (stereo not drawn) [Compound 4.37, N,2-dimethyl-N-[[5-[5-(trifluoromethyl)-1,2,4-oxadiazol-3-yl]-2-thienyl]methyl]butanamide]
≥ 80%: inhibition of growth at 20 ppm [1] | pest or weed control at 200 ppm [2] | pest or weed control at 200 ppm [3] | pest or weed control at 200 ppm (Phakopsora pachyrhizi)

CCNC(=O)N(Cc1ccc(-c2noc(C(F)(F)F)n2)s1)C(C)C [Compound 4.83, 3-ethyl-1-isopropyl-1-[[5-[5-(trifluoromethyl)-1,2,4-oxadiazol-3-yl]-2-thienyl]methyl]urea]
≥ 80%: inhibition of growth at 20 ppm [1] | pest or weed control at 200 ppm [2] | pest or weed control at 200 ppm [3] | pest or weed control at 200 ppm (Phakopsora pachyrhizi)

CON(Cc1ccc(-c2noc(C(F)(F)F)n2)s1)C(=O)C1(C)COC1 [Compound 1.16, N-methoxy-3-methyl-N-[[5-[5-(trifluoromethyl)-1,2,4-oxadiazol-3-yl]-2-thienyl]methyl]oxetane-3-carboxamide]
≥ 80%: inhibition of growth at 20 ppm [1] | pest or weed control at 200 ppm [2] | pest or weed control at 200 ppm [3] | pest or weed control at 200 ppm (Phakopsora pachyrhizi)

CCCC(=O)N(Cc1ccc(-c2noc(C(F)(F)F)n2)s1)OC [Compound 1.21, N-methoxy-N-[[5-[5-(trifluoromethyl)-1,2,4-oxadiazol-3-yl]-2-thienyl]methyl]butanamide]
≥ 80%: inhibition of growth at 20 ppm [1] | pest or weed control at 200 ppm [2] | pest or weed control at 200 ppm [3] | pest or weed control at 200 ppm (Phakopsora pachyrhizi)

CC(C)C(=O)NCc1ccc(-c2noc(C(F)(F)F)n2)s1 [Compound 2.9, 2-methyl-N-[[5-[5-(trifluoromethyl)-1,2,4-oxadiazol-3-yl]-2-thienyl]methyl]propanamide]
≥ 80%: inhibition of growth at 20 ppm [1] | pest or weed control at 200 ppm [2] | pest or weed control at 200 ppm [3] | pest or weed control at 200 ppm (Phakopsora pachyrhizi)

COCCC(=O)N(Cc1ccc(-c2noc(C(F)(F)F)n2)s1)C1CC1 [Compound 4.55, N-cyclopropyl-3-methoxy-N-[[5-[5-(trifluoromethyl)-1,2,4-oxadiazol-3-yl]-2-thienyl]methyl]propanamide]
≥ 80%: inhibition of growth at 20 ppm [1] | pest or weed control at 200 ppm [2] | pest or weed control at 200 ppm [3] | pest or weed control at 200 ppm (Phakopsora pachyrhizi)

O=C(NCc1ccc(-c2noc(C(F)(F)F)n2)s1)c1ccccc1Cl [Compound 3.9, 2-chloro-N-[[5-[5-(trifluoromethyl)-1,2,4-oxadiazol-3-yl]-2-thienyl]methyl]benzamide]
≥ 80%: inhibition of growth at 20 ppm [1] | pest or weed control at 200 ppm [2] | pest or weed control at 200 ppm [3] | pest or weed control at 200 ppm (Phakopsora pachyrhizi)

CC1(C(=O)NCc2ccc(-c3noc(C(F)(F)F)n3)s2)COC1 [Compound 3.7, 3-methyl-N-[[5-[5-(trifluoromethyl)-1,2,4-oxadiazol-3-yl]-2-thienyl]methyl]oxetane-3-carboxamide]
≥ 80%: inhibition of growth at 20 ppm [1] | pest or weed control at 200 ppm [2] | pest or weed control at 200 ppm [3] | pest or weed control at 200 ppm (Phakopsora pachyrhizi)

CCN(Cc1ccc(-c2noc(C(F)(F)F)n2)s1)C(=O)NCCOC [Compound 4.72, 1-ethyl-3-(2-methoxyethyl)-1-[[5-[5-(trifluoromethyl)-1,2,4-oxadiazol-3-yl]-2-thienyl]methyl]urea]
≥ 80%: inhibition of growth at 20 ppm [1] | pest or weed control at 200 ppm [2] | pest or weed control at 200 ppm [3] | pest or weed control at 200 ppm (Phakopsora pachyrhizi)

C=CCN(C)C(=O)N(Cc1ccc(-c2noc(C(F)(F)F)n2)s1)OC [Compound 1.52, 1-allyl-3-methoxy-1-methyl-3-[[5-[5-(trifluoromethyl)-1,2,4-oxadiazol-3-yl]-2-thienyl]methyl]urea]
≥ 80%: inhibition of growth at 20 ppm [1] | pest or weed control at 200 ppm [2] | pest or weed control at 200 ppm [3] | pest or weed control at 200 ppm (Phakopsora pachyrhizi)

O=C(NCc1ccc(-c2noc(C(F)(F)F)n2)s1)C1CC1(F)F (stereo not drawn) [Compound 3.2, 2,2-difluoro-N-[[5-[5-(trifluoromethyl)-1,2,4-oxadiazol-3-yl]-2-thienyl]methyl]cyclopropanecarboxamide]
≥ 80%: inhibition of growth at 20 ppm [1] | pest or weed control at 200 ppm [2] | pest or weed control at 200 ppm [3] | pest or weed control at 200 ppm (Phakopsora pachyrhizi)

CCC(=O)N(CC)Cc1ccc(-c2noc(C(F)(F)F)n2)s1 [Compound 4.26, N-ethyl-N-[[5-[5-(trifluoromethyl)-1,2,4-oxadiazol-3-yl]-2-thienyl]methyl]propanamide]
≥ 80%: inhibition of growth at 20 ppm [1] | pest or weed control at 200 ppm [2] | pest or weed control at 200 ppm [3] | pest or weed control at 200 ppm (Phakopsora pachyrhizi)

COCC(=O)N(Cc1ccc(-c2noc(C(F)(F)F)n2)s1)C1CC1 [Compound 4.52, N-cyclopropyl-2-methoxy-N-[[5-[5-(trifluoromethyl)-1,2,4-oxadiazol-3-yl]-2-thienyl]methyl]acetamide]
≥ 80%: inhibition of growth at 20 ppm [1] | pest or weed control at 200 ppm [2] | pest or weed control at 200 ppm [3] | pest or weed control at 200 ppm (Phakopsora pachyrhizi)

C#CCNC(=O)N(C)Cc1ccc(-c2noc(C(F)(F)F)n2)s1 [Compound 4.81, 1-methyl-3-prop-2-ynyl-1-[[5-[5-(trifluoromethyl)-1,2,4-oxadiazol-3-yl]-2-thienyl]methyl]urea]
≥ 80%: inhibition of growth at 20 ppm [1] | pest or weed control at 200 ppm [2] | pest or weed control at 200 ppm [3] | pest or weed control at 200 ppm (Phakopsora pachyrhizi)

O=C(NCc1ccc(-c2noc(C(F)(F)F)n2)s1)C1CCC1 [Compound 3.4, N-[[5-[5-(trifluoromethyl)-1,2,4-oxadiazol-3-yl]-2-thienyl]methyl]cyclobutanecarboxamide]
≥ 80%: inhibition of growth at 20 ppm [1] | pest or weed control at 200 ppm [2] | pest or weed control at 200 ppm [3] | pest or weed control at 200 ppm (Phakopsora pachyrhizi)

C#CCNC(=O)N(CC)Cc1ccc(-c2noc(C(F)(F)F)n2)s1 [Compound 4.75, 1-ethyl-3-prop-2-ynyl-1-[[5-[5-(trifluoromethyl)-1,2,4-oxadiazol-3-yl]-2-thienyl]methyl]urea]
≥ 80%: inhibition of growth at 20 ppm [1] | pest or weed control at 200 ppm [2] | pest or weed control at 200 ppm [3] | pest or weed control at 200 ppm (Phakopsora pachyrhizi)

CCNC(=O)N(CC)Cc1ccc(-c2noc(C(F)(F)F)n2)s1 [Compound 4.8, 1,3-diethyl-1-[[5-[5-(trifluoromethyl)-1,2,4-oxadiazol-3-yl]-2-thienyl]methyl]urea]
≥ 80%: inhibition of growth at 20 ppm [1] | pest or weed control at 200 ppm [2] | pest or weed control at 200 ppm [3] | pest or weed control at 200 ppm (Phakopsora pachyrhizi)

C=CCN(C)C(=O)N(CC)Cc1ccc(-c2noc(C(F)(F)F)n2)s1 [Compound 4.71, 1-allyl-3-ethyl-1-methyl-3-[[5-[5-(trifluoromethyl)-1,2,4-oxadiazol-3-yl]-2-thienyl]methyl]urea]
≥ 80%: inhibition of growth at 20 ppm [1] | pest or weed control at 200 ppm [2] | pest or weed control at 200 ppm [3] | pest or weed control at 200 ppm (Phakopsora pachyrhizi)

CCC(C)C(=O)NCc1ccc(-c2noc(C(F)(F)F)n2)s1 (stereo not drawn) [Compound 2.7, 2-methyl-N-[[5-[5-(trifluoromethyl)-1,2,4-oxadiazol-3-yl]-2-thienyl]methyl]butanamide]
≥ 80%: inhibition of growth at 20 ppm [1] | pest or weed control at 200 ppm [2] | pest or weed control at 200 ppm [3] | pest or weed control at 200 ppm (Phakopsora pachyrhizi)

CCN(Cc1ccc(-c2noc(C(F)(F)F)n2)s1)C(=O)C(C)C [Compound 4.7, N-ethyl-2-methyl-N-[[5-[5-(trifluoromethyl)-1,2,4-oxadiazol-3-yl]-2-thienyl]methyl]propanamide]
≥ 80%: inhibition of growth at 20 ppm [1] | pest or weed control at 200 ppm [2] | pest or weed control at 200 ppm [3] | pest or weed control at 200 ppm (Phakopsora pachyrhizi)

COCCC(=O)N(Cc1ccc(-c2noc(C(F)(F)F)n2)s1)OC [Compound 1.11, N,3-dimethoxy-N-[[5-[5-(trifluoromethyl)-1,2,4-oxadiazol-3-yl]-2-thienyl]methyl]propanamide]
≥ 80%: inhibition of growth at 20 ppm [1] | pest or weed control at 200 ppm [2] | pest or weed control at 200 ppm [3] | pest or weed control at 200 ppm (Phakopsora pachyrhizi)

CCN(Cc1ccc(-c2noc(C(F)(F)F)n2)s1)C(=O)CCCOC [Compound 4.28, N-ethyl-4-methoxy-N-[[5-[5-(trifluoromethyl)-1,2,4-oxadiazol-3-yl]-2-thienyl]methyl]butanamide]
≥ 80%: inhibition of growth at 20 ppm [1] | pest or weed control at 200 ppm [2] | pest or weed control at 200 ppm [3] | pest or weed control at 200 ppm (Phakopsora pachyrhizi)

— patent publication US20200187502A1, “MICROBIOCIDAL OXADIAZOLE DERIVATIVES” (SYNGENTA PARTICIPATIONS AG, priority 2017, published 2020)
